The source made the active and inactive calls. The calls are words filed in the database; no cut-off is given here.

Broadly, the pKB is −log10 of the KB, conventionally taken in molar units.

Assay [1] has as its target T1, Type-1 angiotensin II receptor (Oryctolagus cuniculus) (UniProt P34976).
T1 sequence (whole entry): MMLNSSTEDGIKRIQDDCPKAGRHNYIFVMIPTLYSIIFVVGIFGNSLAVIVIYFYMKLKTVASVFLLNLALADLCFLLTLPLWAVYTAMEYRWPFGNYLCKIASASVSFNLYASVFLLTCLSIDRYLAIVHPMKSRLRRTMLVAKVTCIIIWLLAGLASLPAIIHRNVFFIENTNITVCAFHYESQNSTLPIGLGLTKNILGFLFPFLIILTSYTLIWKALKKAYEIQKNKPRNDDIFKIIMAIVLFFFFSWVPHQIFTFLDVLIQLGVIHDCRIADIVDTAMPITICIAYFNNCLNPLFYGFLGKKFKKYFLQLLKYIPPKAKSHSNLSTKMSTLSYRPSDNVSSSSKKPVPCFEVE
The assay can be described thus: In vitro antagonist activity against Angiotensin II Receptor (Ang II) in isolated rabbit thoracic aorta. It counts as functional, tissue-based.

Assay [2] deals with Rattus norvegicus. The assay can be described thus: Evaluated in vivo for its ability to block the pressor response to Ang II in pithed rats following oral administration; NA means not active at the dose (10 mg/kg) and time tested (4 h). It counts as functional, organism-based.
Assay [3] relates to Rattus norvegicus. The assay can be described thus: Evaluated in vivo for its ability to block the pressor response to Ang II in pithed rats following oral administration. Type of assay: functional.

For the compound `CCCCCCC(C(=O)O)n1cnc2cc(-c3ccccc3S(=O)(=O)O)ccc21` (stereo in doubt), the pKB in assay [1] came out at 5.6.

Consider `CCCCCC[C@H](C(=O)N1C[C@@H](Oc2ccc(CC(=O)O)cc2)C[C@H]1C(=O)O)n1cnc2cc(-c3ccccc3S(=O)(=O)O)ccc21`, for which the pKB in assay [1] was found to be 9. For the same compound, the KB entry with Rattus norvegicus [2] is “inactive”.

`CCCCCC[C@@H](C(=O)N1C[C@@H](Oc2ccccc2)C[C@H]1C(=O)O)n1cnc(NC(=O)c2ccccc2S(=O)(=O)O)c1` registered a pKB in assay [1] of 7.6.

Turning to `CCCCCCC(C(=O)O)n1cnc2cc(-c3ccccc3S(=O)(=O)O)ccc21` (stereo in doubt; 4), in assay [1], the pKB amounted to 7.7. Besides, in the assay on Rattus norvegicus [2], the KB entry was “inactive”.

On to `CCCCCCC(C(=O)O)n1cnc(NC(=O)c2ccccc2S(=O)(=O)O)c1` (centres undefined), for which, in assay [1], the negative-log KB (pKB) is 7.2. For the same compound, the KB result in the assay with Rattus norvegicus [2] was “inactive”.

In the case of `CCCCCC[C@@H](C(=O)N1C[C@@H](Oc2ccc(CC(=O)O)cc2)C[C@H]1C(=O)O)n1cnc2cc(-c3ccccc3S(=O)(=O)O)ccc21`, in assay [1], the pKB was 7.8.

In assay [1], `CCCCCC[C@H](C(=O)N1C[C@@H](Oc2ccc(CC(=O)O)cc2)C[C@H]1C(=O)O)n1cnc(NC(=O)c2ccccc2S(=O)(=O)O)c1` displayed a pKB of 9.7. The KB in the assay on Rattus norvegicus [3] turned out to be 2.8 mg/kg.

`CCCCCC[C@@H](C(=O)N1C[C@@H](Oc2ccc(CC(=O)O)cc2)C[C@H]1C(=O)O)n1cnc(NC(=O)c2ccccc2S(=O)(=O)O)c1` gave a pKB in assay [1] of 8.4. For the same compound, the KB result in the assay with Rattus norvegicus [2] is “inactive”.

Take `CCCCCC[C@H](C(=O)N1C[C@@H](Oc2ccccc2)C[C@H]1C(=O)O)n1cnc(NC(=O)c2ccccc2S(=O)(=O)O)c1`: the pKB in assay [1] was found to be 9.1.

These data come from ChEMBL document CHEMBL1128886, “Synthesis and pharmacological evaluation of a novel series of 5-aryl benzimidazole angiotensin II receptor antagonists” (1995).
